This is an account of results in patent publication US9365549B2, “Hepatitis C virus inhibitors” (THERAVANCE BIOPHARMA R&D IP, LLC, priority 2012, dated 2016).

The test system of this assay is HCV genotype 1a replicon cell line. Nature of the assay: HCV Genotype 1a Replicon Assay. The format is cell-based. The following applies: Hepatitis C virus, Huh7.5 cell background, NS3-specific protease activity in lysates, 48 or 72 hours, read-out: pEC50 Genotype 1a (converted). How it is done: Assay 2: HCV Genotype 1a Replicon Assay
The HCV genotype 1a replicon cell line was obtained from Apath LLC (APC89; Huh7.5 cell background). This subgenomic replicon contains the N-terminus of the HCV core protein fused to the neomycin-resistance selectable marker. The EMCV IRES lies downstream and drives expression of the non-structural proteins NS3-NS5B. Compound potencies were determined using the NS3-specific protease activity in lysates as a measurement of compound inhibition of replicon levels.
Cells were grown at 37° C. in a 5% CO2 humidified incubator in DMEM (Invitrogen) with 10% FBS (HyClone), 1×NEAA (Invitrogen), 1× Pen-Strep (Invitrogen), and 850 μg/mL G418 (Invitrogen). On day 1 of the assay, cells were plated at 15,000 cells/well in black 96-well tissue culture plates (Costar) in 200 μL media lacking G418. […] Compounds were initially diluted in DMSO and then diluted another 200× in media to bring the final DMSO concentration down to 0.5%. The cells were incubated with test compounds for 48 or 72 hours. At the end of the incubation period, media and compound were removed from the plates.
To determine the NS3-specific protease activity in lysates, the cells were lysed at room temperature in 50 μL/well of 50 mM Hepes pH 7.5, 150 mM NaCl, 15% Glycerol, 0.15% Triton X-100, 10 mM DTT for 20 minutes with shaking. 50 μL of an NS3/4a protease-specific FRET substrate (Anaspec RET S1 Cat#22991) was then added to the wells at a final concentration of 15 μM. The plates were incubated at 37° C. for 20 minutes, which corresponds to a timepoint at which the protease activity is still in the linear phase. Protease activity was determined by measuring fluorescence (Excitation: 340 nm; Emission: 509 nm).
To analyze the data, the fluorescence was plotted vs. the compound concentration, and EC50 values were determined from a 4-parameter robust fit model using GraphPad Prism software.
In general terms: A replicon is a self-replicating genome or part of one, used to study replication in cells.
Take `COC(=O)N[C@H](C(=O)N1CC(C)=C[C@H]1c1nc(-c2ccc(-c3cc(Cl)c(NC(=O)c4ccc(N5CCN(C(=O)C(C)(C)C)C[C@H]5C)nc4)cc3OC(F)(F)F)cc2)c[nH]1)C(C)C` [Example 1, [(S)-1-((S)-2-{4-[5′-Chloro-4′-({6-[(R)-4-(2,2-dimethyl-propionyl)-2-methyl-piperazin-1-yl]-pyridine-3-carbonyl}-amino)-2′-trifluoromethoxy-biphenyl-4-yl]-1H-imidazol-2-yl}-4-methyl-2,5-dihydro-pyrrole-1-carbonyl)-2-methyl-propyl]-carbamic acid methyl ester]: the EC50 was less than 0.1 nM. As for `COC(=O)N[C@H](C(=O)N1CC(C)CC[C@H]1c1nc(-c2ccc(-c3cc(Cl)c(NC(=O)c4ccc(N5CCN(C(=O)C(C)(C)C)C[C@H]5C)nc4)cc3OC(F)(F)F)cc2)c[nH]1)C(C)C` (stereo partly drawn) [Example 1-5], the EC50 was 0.1 to 1 nM.

As for `COC(=O)N[C@H](C(=O)N1CC(C)=C[C@H]1c1nc(-c2ccc(-c3cc(Cl)c(NC(=O)c4ccc(N5CCN(C(=O)[C@H]6CC6(C)C)C[C@H]5C)nc4)cc3OC(F)(F)F)cc2)c[nH]1)C(C)C` [Example 2, ((S)-1-{(S)-2-[4-(5′-Chloro-4′-{[6-((R)-4-(S)-2,2-dimethylcyclopropanecarbonyl-2-methyl-piperazin-1-yl)-pyridine-3-carbonyl]-amino}-2′-trifluoromethoxy-biphenyl-4-yl)-1H-imidazol-2-yl]-4-methyl-2,5-dihydro-pyrrole-1-carbonyl}-2-methyl-propyl)-carbamic acid methyl ester], the EC50 was less than 0.1 nM. For `COC(=O)N[C@H](C(=O)N1CC(C)=C[C@H]1c1nc(-c2ccc(-c3ccc(C(=O)Nc4ccc(N5CC(C)N(C(=O)C6CC6)C[C@H]5C)nc4)cc3OC(F)(F)F)cc2)c[nH]1)C(C)C` (stereo partly drawn) [Example 2-1], the EC50 was 0.1 to 1 nM.

Turning to `CNC(=O)N1C[C@@H](C)N(c2ccc(NC(=O)c3ccc(-c4ccc(-c5c[nH]c([C@@H]6C=C(C)CN6C(=O)[C@@H](NC(=O)OC)C(C)C)n5)cc4)c(OC(F)(F)F)c3)cn2)CC1C` (stereo partly drawn) [Example 2-2], the EC50 is 0.1 to 1 nM. For the compound `COC(=O)N[C@H](C(=O)N1CC(C)=C[C@H]1c1nc(-c2ccc(-c3ccc(C(=O)Nc4ccc(N5CC(C)N(C(=O)C(C)(C)C)C[C@H]5C)nc4)cc3OC(F)(F)F)cc2)c[nH]1)C(C)C` (stereo partly drawn) [Example 2-3], the EC50 is 0.1 to 1 nM. Next, `COC(=O)N[C@H](C(=O)N1CC(C)=C[C@H]1c1nc(-c2ccc(-c3ccc(C(=O)Nc4ccc(N5CC(C)N(C(=O)CNC(C)=O)C[C@H]5C)nc4)cc3OC(F)(F)F)cc2)c[nH]1)C(C)C` (stereo partly drawn) [Example 2-5]: 0.1 to 1 nM; `COC(=O)N[C@H](C(=O)N1CC(C)=C[C@H]1c1nc(-c2ccc(-c3ccc(C(=O)Nc4ccc(N5CC(C)N(C(=O)C6(O)CC6(C)C)C[C@H]5C)nc4)cc3OC(F)(F)F)cc2)c[nH]1)C(C)C` (stereo partly drawn) [Example 2-6]: 0.1 to 1 nM. Next, `COC(=O)N[C@H](C(=O)N1CC(C)=C[C@H]1c1nc(-c2ccc(-c3ccc(C(=O)Nc4ccc(N5CC(C)N(C(=O)C6CC6(Cl)Cl)C[C@H]5C)nc4)cc3OC(F)(F)F)cc2)c[nH]1)C(C)C` (stereo partly drawn) [Example 2-7]: 0.1 to 1 nM; `COC(=O)N[C@H](C(=O)N1CC(C)=C[C@H]1c1nc(-c2ccc(-c3ccc(C(=O)Nc4ccc(N5CC(C)N(C(=O)C(C)(C)NC(=O)C6CCC6)C[C@H]5C)nc4)cc3OC(F)(F)F)cc2)c[nH]1)C(C)C` (stereo partly drawn) [Example 2-9]: 0.1 to 1 nM. Regarding `COC(=O)N[C@H](C(=O)N1CC(C2CC2)=C[C@H]1c1nc(-c2ccc(-c3cc(Cl)c(NC(=O)c4ccc(N5CCN(C(=O)C(C)(C)C)C[C@H]5C)nc4)cc3OC(F)(F)F)cc2)c[nH]1)C(C)C` [Example 3, [(S)-1-((S)-2-{4-[5′-Chloro-4′-({6-[(R)-4-(2,2-dimethyl-propionyl)-2-methyl-piperazin-1-yl]-pyridine-3-carbonyl}-amino)-2′-trifluoromethoxy-biphenyl-4-yl]-1H-imidazol-2-yl}-4-cyclopropyl-2,5-dihydro-pyrrole-1-carbonyl)-2-methyl-propyl]-carbamic acid methyl ester], the EC50 was less than 0.1 nM. `[2H]C([2H])([2H])C1(C([2H])([2H])[2H])CC1C(=O)N1C[C@@H](C)N(c2ccc(NC(=O)c3ccc(-c4ccc5c(ccc6[nH]c([C@@H]7C[C@H](C)CN7C(=O)[C@@H](NC(=O)OC)C(C)C)nc65)c4)c(OC(F)(F)F)c3)cn2)CC1C` (stereo partly drawn) [Example 3-8]: the EC50 was less than 0.1 nM. On to `COC(=O)N[C@H](C(=O)N1C[C@@H](C)C[C@H]1c1nc2c(ccc3cc(-c4ccc(C(=O)Nc5ccc(N6CC(C)N(C(=O)C(C)(C)C)C[C@H]6C)nc5)cc4OC(F)(F)F)ccc32)[nH]1)C(C)C` (stereo partly drawn) [Example 3-9], for which the EC50 was less than 0.1 nM. In the case of `COC(=O)N[C@H](C(=O)N1C[C@@H](C)C[C@H]1c1nc2c(ccc3cc(-c4ccc(C(=O)Nc5ccc(N6CC(C)N(C(=O)N(C)C)C[C@H]6C)nc5)cc4OC(F)(F)F)ccc32)[nH]1)C(C)C` (stereo partly drawn) [Example 3-10] it was less than 0.1 nM; in that of `COC(=O)N[C@H](C(=O)N1C[C@@H](C)C[C@H]1c1nc2c(ccc3cc(-c4ccc(C(=O)Nc5ccc(N6CC(C)N(C(=O)C7CC7)C[C@H]6C)nc5)cc4OC(F)(F)F)ccc32)[nH]1)C(C)C` (stereo partly drawn) [Example 3-11], less than 0.1 nM; in that of `COC(=O)N[C@H](C(=O)N1[C@@H]2CC[C@@H](C2)[C@H]1c1nc(-c2ccc(-c3cc(Cl)c(NC(=O)c4ccc(N5CCN(C(=O)C(C)(C)C)C[C@H]5C)nc4)cc3OC(F)(F)F)cc2)c[nH]1)C1CCOCC1` [Example 5-4], less than 0.1 nM. Turning to `COC(=O)N[C@H](C(=O)N1[C@@H]2CC[C@@H](C2)[C@H]1c1nc(-c2ccc(-c3cc(Cl)c(NC(=O)c4ccc(N5CCN(C(=O)C(C)(C)C)C[C@H]5C)nc4)cc3OC(F)(F)F)cc2)c[nH]1)C(C)C` [Example 5-5], the EC50 is 0.1 to 1 nM. With `COC(=O)N[C@H](C(=O)N1[C@@H]2C[C@@H]2CC[C@H]1c1nc(-c2ccc(-c3cc(Cl)c(NC(=O)c4ccc(N5CCN(C(=O)[C@H]6CC6(C)C)C[C@H]5C)nc4)cc3OC(F)(F)F)cc2)c[nH]1)C(C)C` [Example 5-8], the EC50 was less than 0.1 nM.

In the case of `COC(=O)N[C@H](C(=O)N1[C@@H]2C[C@@H]2CC[C@H]1c1nc(-c2ccc(-c3cc(Cl)c(NC(=O)c4ccc(N5CCN(C(=O)C(C)(C)CO)C[C@H]5C)nc4)cc3OC(F)(F)F)cc2)c[nH]1)C(C)C` [Example 5-9], the EC50 was less than 0.1 nM. Regarding `COC(=O)N[C@H](C(=O)N1C[C@H]2[C@@H]([C@H]1c1nc(-c3ccc(-c4cc(Cl)c(NC(=O)c5ccc(N6CCN(C(=O)C(C)(C)C)C[C@H]6C)nc5)cc4OC(F)(F)F)cc3)c[nH]1)C2(C)C)C(C)C` [Example 5-11], the EC50 is 0.1 to 1 nM. Take `COC(=O)N[C@H](C(=O)N1C[C@H]2[C@@H]([C@H]1c1nc(-c3ccc(-c4cc(Cl)c(NC(=O)c5ccc(N6CCN(C(=O)C(C)(C)C)C[C@H]6C)nc5)cc4OC(F)(F)F)cc3)c[nH]1)C2(C)C)C1CCOCC1` [Example 5-12]: the EC50 was 0.1 to 1 nM. In the case of `COC(=O)N[C@H](C(=O)N1C[Si](C)(C)C[C@H]1c1nc(-c2ccc(-c3cc(Cl)c(NC(=O)c4ccc(N5CCN(C(=O)C(C)(C)C)C[C@H]5C)nc4)cc3OC(F)(F)F)cc2)c[nH]1)C(C)C` [Example 6, [(S)-1-((R)-5-{4-[5′-Chloro-4′-({6-[(R)-4-(2,2-dimethyl-propionyl)-2-methyl-piperazin-1-yl]-pyridine-3-carbonyl}-amino)-2′-trifluoromethoxy-biphenyl-4-yl]-1H-imidazol-2-yl}-3,3-dimethyl-[1,3]azasilolidine-1-carbonyl)-2-methyl-propyl]-carbamic acid methyl ester] it was 0.1 to 1 nM; in that of `COC(=O)N[C@H](C(=O)N1C[C@@H](C)CC[C@H]1c1nc(-c2ccc(-c3cc(Cl)c(NC(=O)c4ccc(N5CCN(C(=O)C(C)(C)CO)C[C@H]5C)nc4)cc3OC(F)(F)F)cc2)c[nH]1)C(C)C` [Example 11, [(S)-1-((2S,5S)-2-{4-[5′-Chloro-4′-({6-[(R)-4-(3-hydroxy-2,2-dimethyl-propionyl)-2-methyl-piperazin-1-yl]-pyridine-3-carbonyl}-amino)-2′-trifluoromethoxy-biphenyl-4-yl]-1H-imidazol-2-yl}-5-methyl-piperidine-1-carbonyl)-2-methyl-propyl]-carbamic acid methyl ester], 0.1 to 1 nM; in that of `COC(=O)N[C@H](C(=O)N1CC(C2CC2)=C[C@H]1c1nc(-c2ccc(-c3ccc(C(=O)Nc4ccc(N5CCN(C(=O)C(C)(C)C)C[C@H]5C)nc4)cc3OC(F)(F)F)cc2)c[nH]1)C(C)C` [Example 12, ((S)-1-{(S)-4-Cyclopropyl-2-[4-(4′-{6-[(R)-4-(2,2-dimethyl-propionyl)-2-methyl-piperazin-1-yl]-pyridin-3-ylcarbamoyl}-2′-trifluoromethoxy-biphenyl-4-yl)-1H-imidazol-2-yl]-2,5-dihydro-pyrrole-1-carbonyl}-2-methyl-propyl)-carbamic acid methyl ester], 0.1 to 1 nM.
